Data as given in patent US9815796B2 (Merck Sharp & Dohme Corp., priority 2013, dated 2017).

Assays:
Rhesus PDE2A3 = Rhesus PDE2A3 (Macaca mulatta, UniProt B3VTJ2); assay: PDE2 fluorescence polarization (IMAP FP) inhibition assay, rhesus enzyme; assay type: biochemical, rhesus macaque; conditions: Rhesus PDE2, Lab B; read-out: Rhesus PDE2 Ki (nM) - Lab B
Summary of the method: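 IMAP FP (mP from parallel and perpendicular fluorescence against substrate-only control) was read ≥1 h after adding binding reagent. The preceding 60 min room-temperature reaction contained FAM-cAMP (50 nM) and cGMP (1 uM) in pH 7.2 Tris buffer with MgCl2 and DTT. Enzyme was supernatant of sonicated AD293 cells expressing rhesus PDE2A3; compounds were 3-fold titrated, DMSO 1% final.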

human PDE2A1 = human PDE2A1 (Homo sapiens (Human), UniProt O00408); assay: IMAP FP PDE selectivity panel, human PDE2A1; assay type: biochemical; conditions: Human PDE2, Lab B; read-out: Human PDE2 Ki (nM) - Lab B
Sequence of human PDE2A1 (O00408 other isoform, or with tags, fused parts or gaps): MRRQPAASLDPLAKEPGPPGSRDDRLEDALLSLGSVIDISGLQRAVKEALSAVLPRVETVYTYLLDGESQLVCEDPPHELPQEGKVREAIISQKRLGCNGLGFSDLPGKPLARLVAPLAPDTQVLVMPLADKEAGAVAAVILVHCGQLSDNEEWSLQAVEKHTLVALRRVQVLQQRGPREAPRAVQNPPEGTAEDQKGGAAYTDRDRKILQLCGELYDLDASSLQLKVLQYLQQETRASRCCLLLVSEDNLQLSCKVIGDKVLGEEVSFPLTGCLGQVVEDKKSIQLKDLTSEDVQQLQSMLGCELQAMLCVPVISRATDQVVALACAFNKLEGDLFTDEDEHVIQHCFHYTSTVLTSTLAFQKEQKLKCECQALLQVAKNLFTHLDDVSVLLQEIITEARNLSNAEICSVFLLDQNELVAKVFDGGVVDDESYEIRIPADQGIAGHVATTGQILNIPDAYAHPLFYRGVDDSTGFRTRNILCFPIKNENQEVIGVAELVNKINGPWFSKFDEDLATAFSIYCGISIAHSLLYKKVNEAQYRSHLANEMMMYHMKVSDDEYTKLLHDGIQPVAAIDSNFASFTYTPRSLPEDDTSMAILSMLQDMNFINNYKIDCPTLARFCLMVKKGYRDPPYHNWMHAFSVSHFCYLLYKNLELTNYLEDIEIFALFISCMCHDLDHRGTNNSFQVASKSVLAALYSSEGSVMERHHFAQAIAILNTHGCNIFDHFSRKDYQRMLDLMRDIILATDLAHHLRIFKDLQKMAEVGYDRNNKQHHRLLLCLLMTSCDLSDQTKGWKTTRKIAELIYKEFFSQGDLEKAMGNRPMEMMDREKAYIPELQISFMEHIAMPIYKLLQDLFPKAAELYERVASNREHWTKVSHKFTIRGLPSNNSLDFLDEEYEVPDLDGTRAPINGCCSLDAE
Summary of the method: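 IMAP FP format: substrate 50 nM FAM-cAMP plus 1000 nM cGMP, enzyme (insect-cell GST-tagged human PDE2A1) at ~20% conversion, 60 min reaction at room temperature. Apparent inhibition constants calculated from parallel/perpendicular fluorescence with KM 10,000 nM.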

Sequence of Rhesus PDE2A3 (B3VTJ2 1-941): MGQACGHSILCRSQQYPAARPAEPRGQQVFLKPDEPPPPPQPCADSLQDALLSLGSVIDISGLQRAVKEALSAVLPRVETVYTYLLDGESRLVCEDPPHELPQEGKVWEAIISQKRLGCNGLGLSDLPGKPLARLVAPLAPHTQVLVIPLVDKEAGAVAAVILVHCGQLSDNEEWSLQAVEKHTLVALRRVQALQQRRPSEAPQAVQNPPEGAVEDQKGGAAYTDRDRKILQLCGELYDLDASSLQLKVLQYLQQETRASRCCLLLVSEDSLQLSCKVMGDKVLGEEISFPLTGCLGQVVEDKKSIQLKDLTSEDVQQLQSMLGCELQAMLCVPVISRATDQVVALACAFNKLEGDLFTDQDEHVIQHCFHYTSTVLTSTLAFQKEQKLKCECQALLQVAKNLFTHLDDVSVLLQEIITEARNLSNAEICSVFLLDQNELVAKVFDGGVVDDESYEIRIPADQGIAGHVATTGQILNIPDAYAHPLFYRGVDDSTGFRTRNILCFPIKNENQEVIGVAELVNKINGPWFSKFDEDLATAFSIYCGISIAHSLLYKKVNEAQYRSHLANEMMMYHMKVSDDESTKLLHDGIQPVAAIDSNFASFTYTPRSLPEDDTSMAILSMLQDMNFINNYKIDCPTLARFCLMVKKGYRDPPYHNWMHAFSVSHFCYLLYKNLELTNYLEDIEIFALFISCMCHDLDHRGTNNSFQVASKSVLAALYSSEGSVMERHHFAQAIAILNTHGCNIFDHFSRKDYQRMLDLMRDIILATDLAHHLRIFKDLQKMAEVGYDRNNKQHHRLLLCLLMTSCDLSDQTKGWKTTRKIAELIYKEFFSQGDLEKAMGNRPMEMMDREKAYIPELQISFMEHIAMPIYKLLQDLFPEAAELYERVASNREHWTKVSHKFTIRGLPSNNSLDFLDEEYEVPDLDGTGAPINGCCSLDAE

Row | Ki (Rhesus PDE2A3) | Ki (human PDE2A1) | SMILES
1 | 38 nM | 40 nM | CC[C@@H](NC(=O)c1cc(=O)[nH]c(C(C)(C)c2ccc(OC)cc2)n1)c1ccc(SC(F)(F)F)c(F)c1 [Example 496, N-[(1R)-1-{3-fluoro-4-[(trifluoromethyl)sulfanyl]phenyl}propyl]-2-[1-(4-methoxyphenyl)-1-methylethyl]-6-oxo-1,6-dihydropyrimidine-4-carboxamide]
2 | 80 nM | 60 nM | COc1ccc(C(C)(C)c2nc(C(=O)N[C@@H](c3ccc(SC(F)(F)F)c(F)c3)C3CC3)cc(=O)[nH]2)cc1 [Example 497, N-[(R)-cyclopropyl{3-fluoro-4-[(trifluoromethyl)sulfanyl]phenyl}methyl]-2-[1-(4-methoxyphenyl)-1-methylethyl]-6-oxo-1,6-dihydropyrimidine-4-carboxamide]
3 | 65 nM | 49 nM | COc1ccc(C(C)(C)c2nc(C(=O)N[C@@H](c3ccc(OC(F)(F)F)c(F)c3)C3CC3)cc(=O)[nH]2)cc1 [Example 498, N-{(R)-cyclopropyl[3-fluoro-4-(trifluoromethoxy)phenyl]methyl}-2-[1-(4-methoxyphenyl)-1-methylethyl]-6-oxo-1,6-dihydropyrimidine-4-carboxamide]
4 | 79 nM | 74 nM | COc1ccc(C(C)(C)c2nc(C(=O)N[C@@H](c3ccc(SC(F)(F)F)cc3)C3CC3)cc(=O)[nH]2)cc1 [Example 500, N-[(R)-cyclopropyl{4-[(trifluoromethyl)sulfanyl]phenyl}methyl]-2-[1-(4-methoxyphenyl)-1-methylethyl]-6-oxo-1,6-dihydropyrimidine-4-carboxamide]
5 | 77 nM | 64 nM | COc1ccc(C(C)(C)c2nc(C(=O)N[C@@H](c3ccc(OC(F)(F)F)cc3)C3CC3)cc(=O)[nH]2)cc1 [Example 501, N-{(R)-cyclopropyl[4-(trifluoromethoxy)phenyl]methyl}-2-[1-(4-methoxyphenyl)-1-methylethyl]-6-oxo-1,6-dihydropyrimidine-4-carboxamide]
6 | 115 nM | 75 nM | COc1ccc(C(C)(C)c2nc(C(=O)N[C@@H](c3ccc(C(F)(F)F)cc3)C3CC3)cc(=O)[nH]2)cc1 [Example 502, N-{(R)-cyclopropyl[4-(trifluoromethyl)phenyl]methyl}-2-[1-(4-methoxyphenyl)-1-methylethyl]-6-oxo-1,6-dihydropyrimidine-4-carboxamide]
7 | 42 nM | 30 nM | CC[C@@H](NC(=O)c1cc(=O)[nH]c(C(C)(C)c2ccc(OC)cc2)n1)c1ccc(OC(F)(F)F)c(F)c1 [Example 504, N-{(1R)-1-[3-fluoro-4-(trifluoromethoxy)phenyl]propyl}-2-[1-(4-methoxyphenyl)-1-methylethyl]-6-oxo-1,6-dihydropyrimidine-4-carboxamide]
8 | 84 nM | 56 nM | CC[C@@H](NC(=O)c1cc(=O)[nH]c(C(C)(C)c2ccc(OC)cc2)n1)c1ccc(OC(F)(F)F)cc1 [Example 505, 2-[1-(4-methoxyphenyl)-1-methylethyl]-6-oxo-N-{(1R)-1-[4-(trifluoromethoxy)phenyl]propyl}-1,6-dihydropyrimidine-4-carboxamide]
9 | 0.92 nM | 0.8 nM | COc1ccc(Cc2nc(C(=O)N[C@@H](c3ccc(OC(F)(F)F)c(F)c3)C(C)(C)C)cc(=O)[nH]2)cc1F [Example 506, 2-(3-fluoro-4-methoxybenzyl)-N-{(1R)-1-[3-fluoro-4-(trifluoromethoxy)phenyl]-2,2-dimethylpropyl}-6-oxo-1,6-dihydropyrimidine-4-carboxamide]
10 | 1.1 nM | 1 nM | COc1ccc(Cc2nc(C(=O)N[C@@H](c3ccc(SC(F)(F)F)cc3)C(C)(C)C)cc(=O)[nH]2)cc1F [Example 507, N-[(1R)-2,2-dimethyl-1-{4-[(trifluoromethyl)sulfanyl]phenyl}propyl]-2-(3-fluoro-4-methoxybenzyl)-6-oxo-1,6-dihydropyrimidine-4-carboxamide]
11 | 0.77 nM | 0.8 nM | COc1ccc(Cc2nc(C(=O)N[C@@H](c3ccc(C(F)(F)F)c(F)c3)C(C)(C)C)cc(=O)[nH]2)cc1F [Example 508, 2-(3-fluoro-4-methoxybenzyl)-N-{(1R)-1-[3-fluoro-4-(trifluoromethyl)phenyl]-2,2-dimethylpropyl}-6-oxo-1,6-dihydropyrimidine-4-carboxamide]
12 | 0.88 nM | 0.99 nM | COc1ccc(Cc2nc(C(=O)N[C@@H](c3ccc(OC(F)(F)F)cc3)C(C)(C)C)cc(=O)[nH]2)cc1F [Example 509, N-{(1R)-2,2-dimethyl-1-[4-(trifluoromethoxy)phenyl]propyl}-2-(3-fluoro-4-methoxybenzyl)-6-oxo-1,6-dihydropyrimidine-4-carboxamide]
13 | 3.3 nM | 2.8 nM | COc1ccc(Cc2nc(C(=O)N[C@@H](c3ccc(S(F)(F)(F)(F)F)cc3)C3CC3)cc(=O)[nH]2)cc1F [Example 510, N-{(R)-cyclopropyl[4-(pentafluoro-λ^6-sulfanyl)phenyl]methyl}-2-(3-fluoro-4-methoxybenzyl)-6-oxo-1,6-dihydropyrimidine-4-carboxamide]
14 | 1.2 nM | 1.4 nM | COc1ccc(Cc2nc(C(=O)N[C@@H](c3ccc(SC(F)(F)F)cc3)C(C)C)cc(=O)[nH]2)cc1F [Example 511, 2-(3-fluoro-4-methoxybenzyl)-N-[(1R)-2-methyl-1-{4-[(trifluoromethyl)sulfanyl]phenyl}propyl]-6-oxo-1,6-dihydropyrimidine-4-carboxamide]
15 | 1.5 nM | 1.6 nM | COc1ccc(Cc2nc(C(=O)N[C@@H](c3ccc(SC(F)(F)F)c(F)c3)C(C)C)cc(=O)[nH]2)cc1F [Example 512, 2-(3-fluoro-4-methoxybenzyl)-N-[(1R)-1-{3-fluoro-4-[(trifluoromethyl)sulfanyl]phenyl}-2-methylpropyl]-6-oxo-1,6-dihydropyrimidine-4-carboxamide]
16 | 2.1 nM | 1.9 nM | COc1ccc(Cc2nc(C(=O)N[C@@H](c3ccc(S(F)(F)(F)(F)F)cc3)C(C)C)cc(=O)[nH]2)cc1F [Example 513, 2-(3-fluoro-4-methoxybenzyl)-N-{(1R)-2-methyl-1-[4-(pentafluoro-λ^6-sulfanyl)phenyl]propyl}-6-oxo-1,6-dihydropyrimidine-4-carboxamide]
17 | 2.2 nM | 1.8 nM | COc1ccc(Cc2nc(C(=O)N[C@@H](c3ccc(C(F)(F)F)c(F)c3)C(C)C)cc(=O)[nH]2)cc1F [Example 514, 2-(3-fluoro-4-methoxybenzyl)-N-{(1R)-1-[3-fluoro-4-(trifluoromethyl)phenyl]-2-methylpropyl}-6-oxo-1,6-dihydropyrimidine-4-carboxamide]
18 | 1.1 nM | 1 nM | COc1ccc(Cc2nc(C(=O)N[C@@H](c3ccc(OC(F)(F)F)c(F)c3)C(C)C)cc(=O)[nH]2)cc1F [Example 515, 2-(3-fluoro-4-methoxybenzyl)-N-{(1R)-1-[3-fluoro-4-(trifluoromethoxy)phenyl]-2-methylpropyl}-6-oxo-1,6-dihydropyrimidine-4-carboxamide]
19 | 1.6 nM | 1.5 nM | COc1ccc(Cc2nc(C(=O)N[C@@H](c3ccc(C(F)(F)F)cc3)C(C)C)cc(=O)[nH]2)cc1F [Example 516, 2-(3-fluoro-4-methoxybenzyl)-N-{(1R)-2-methyl-1-[4-(trifluoromethyl)phenyl]propyl}-6-oxo-1,6-dihydropyrimidine-4-carboxamide]
